Measurements taken from patent US20140343097A1, “5-(2-1-HYDROXYETHYL)-8-HYDROXYQUINOLIN-2(1H)-ONE FOR THE TREATMENT OF LUNG FUNCTION” (ALMIRALL, S.A., priority 2009, published 2014).

Test system: men with mild to moderate persistent asthma (lung function, FEV1)
Test: Clinical Phase II cross-over study: FEV1 by spirometry after single inhaled doses in asthma patients
Type: in vivo, human
Conditions: for Peak FEV1 / Peak FEV1 increase over baseline / Peak FEV1 increase over placebo / Trough FEV1 / Trough FEV1 increase over baseline / Trough FEV1 increase over placebo: average, compound single dose 25 mcg, salmeterol 50 mcg at 0 and 12 hours; for Peak FEV1: inhalation by dry powder inhaler; for Peak FEV1 increase over baseline / Peak FEV1 increase over placebo / Trough FEV1 / Trough FEV1 increase over baseline / Trough FEV1 increase over placebo: inhalation
Description: Clinical Phase II study: A randomised double-blind, double-dummy, placebo and active comparator-controlled, cross-over trial assesses the activity, safety, tolerability and pharmacokinetics of single doses of 5-(2-{[6-(2,2-difluoro-2-phenylethoxy)hexyl]amino}-1-(R)-hydroxyethyl)-8-hydroxyquinolin-2(1H)-one heminapadisylate by inhalation in asthma patients.
Methods: Men with a diagnosis of mild to moderate persistent asthma, as defined by the 2006 GINA guideline, for at least 6 months prior to screening and with a FEV1 61-85% of the predicted normal values (according to Quanjer et al. 1993) were randomised to treatment sequences comprising a single-dose administration of 5-(2-{[6-(2,2-difluoro-2-phenylethoxy)hexyl]amino}-1-(R)-hydroxyethyl)-8-hydroxyquinolin-2(1H)-one heminapadisylate (at a metered nominal dose of 25 micrograms in the Cyclohaler® device), two administrations (at time points 0 and 12 hours) of Salmeterol (at a metered nominal dose of 50 micrograms in the Cyclohaler® device) and placebo administered all of them by means of a dry powder inhaler. Lung function measurements included (by spirometry) FEV1, PEF, FVC, FEF25-75, and (by body plethysmography) sGaw and Raw.
Results: 25 males (aged 18 to 70) took part in the study.

[1] = 25 micrograms single inhaled dose

Row | SMILES | Peak FEV1 [L] | Peak FEV1 increase over baseline [mL] | Peak FEV1 increase over placebo [mL] | Trough FEV1 [L] | Trough FEV1 increase over baseline [mL] | Trough FEV1 increase over placebo [mL] | average peak and trough FEV1 compared with placebo and with salmeterol [1] | increase in average trough FEV1 compared to salmeterol (two doses) [1] | FEV1 values compared with salmeterol (single dose 25 micrograms) | bronchodilation: size, duration and onset (single dose 25 micrograms)
1 | OCc1cc(C(O)CNCCCCCCOCCCCc2ccccc2)ccc1O (stereo not shown) [Salmeterol, 2-(hydroxymethyl)-4-{1-hydroxy-2-[6-(4-phenylbutoxy)hexylamino]ethyl}phenol, reference compound] | 3.521 | 667 | 442 | 3.209 | 355 | 285 |  |  |  | 
2 | O=c1ccc2c([C@@H](O)CNCCCCCCOCC(F)(F)c3ccccc3)ccc(O)c2[nH]1 [5-(2-{[6-(2,2-difluoro-2-phenylethoxy)hexyl]amino}-1-(R)-hydroxyethyl)-8-hydroxyquinolin-2(1H)-one] | 3.819 | 843 | 618 | 3.642 | 666 | 718 | clearly increased | statistically significant | significantly higher than those produced by salmeterol | surprisingly large, long-lasting bronchodilation, with a fast onset
